Values of other authors, collected in patent publication US20050137262A1, “Highly concentrated pourable aqueous solutions of potassium ibuprofen, their preparation and their uses” (priority 2003, published 2005).

## CC(C)Cc1ccc(C(C)C(=O)[O-])cc1.[K+] (centres unmarked) [potassium ibuprofen, potassium 2-(4-isobutylphenyl)propionate]
U.S. Pat No. 5,912,011 Table 1, system with 35.2 wt % ibuprofen, 33.3 wt % PEG 600, 7.3 wt % water
  concentration of dissolved potassium ibuprofen: 24.2 wt %
U.S. Pat. No. 6,387,400, polyethylene glycol solvent, less than about 50 mole % of ibuprofen converted to potassium salt
  maximum concentration of dissolved potassium ibuprofen shown: about 24.2 wt %
